The nature of the data set: Example 7 pharmacokinetics assay for PKPD study (plasma, tumor, liver). The data set is classed as in vivo, BALB/c nude mice. The settings on record: mouse, po, 10 mg/kg, p.o., single dose. On the procedure: For the PK and PD study, agents were administered to BALB/c nude mice bearing A375 human melanoma xenografts tumors. Dabrafenib, Compound 141, Compound 118, Compound 156, and Compound 180 were dosed p.o. once on day 1. Known BRAF inhibitor Dabrafenib was used as a positive control. Dabrafenib was dosed at 100 mg/kg. Compound 141, Compound 118, Compound 156, and Compound 180 were dosed at 10 mg/kg.
The plasma samples were collected at predetermined time points for PK analysis. The mice were euthanized at predetermined time points post the treatment. The blood samples were collected into the 1.5 mL Eppendorf tubes containing 15 μL of 0.5 M EDTA-K2. And then the anticoagulant blood samples were centrifuged at 2,500 g at 4° C. for 15 minutes. The plasma samples were separated into 2 aliquots. The 1st was used for PK analysis, and the 2nd served as backup. The samples were stored at −80° C. before bioanalysis.
The tumor samples were collected at predetermined time points for PK and WB analysis. The tumor was dissected out and split into 3 parts. The 1st part was used for PK analysis, the 2nd part was used for WB analysis and the last one served as backup for study. The samples were transferred into pre-labeled tubes and quickly froze in liquid nitrogen within 2 minutes after dissection. The samples were stored at −80° C. before bioanalysis.
Liver samples were collected at predetermined time points for PK analysis. The left lobe of the liver was dissected out and split into 2 parts. The 1st part was used for PK analysis and the 2nd part served as the backup for the study. The samples were transferred into pre-labeled tubes and quickly froze in liquid nitrogen within 2 minutes after dissection. The samples were stored at −80° C. before bioanalysis.
The harvested plasma and liver samples were processed for pharmacokinetics analysis by LC-MS/MS with a concentration range of 0.500-1000 ng/mL for Dabrafenib, Compound 118 and Compound 180 in plasma, 0.100~200 ng/ml for Dabrafenib in Liver and tumor homogenate, 50.0~50,000 ng/mL for Compound 141 in plasma and Liver homogenate, 1.00-1000 ng/ml for Compound 141 in tumor homogenate, 2.00~2000 ng/mL for Compound 118 and Compound 180 in Liver and 0.200~200 ng/ml in tumor homogenate, 1.00~2000 ng/mL for Compound 156 in plasma, 0.500-1000 ng/ml in liver and 0.500-1,000 ng/ml in tumor homogenate.

[1] abbreviates: liver, read-out: Concentration in Liver (mean ± SEM).
[2] abbreviates: plasma, read-out: Concentration in Plasma (mean ± SEM).
[3] abbreviates: tumor, read-out: Concentration in Tumor (mean ± SEM).

Like-named read-outs stand apart in the source and are kept apart here.

Turning to `CCN(C)S(=O)(=O)Nc1ccc(F)c(Oc2ccc3ncc(OCC4CCN(C5CCC(c6cc7c(cc6F)c(N6CCC(=O)NC6=O)nn7C)CC5)CC4)nc3c2)c1C#N` (single isomer, unassigned) [Compound 118, 7-[2-cyano-3-[[ethyl(methyl)sulfamoyl]amino]-6-fluoro-phenoxy]-2-[[1-[4-[3-(2,4-dioxohexahydropyrimidin-1-yl)-5-fluoro-1-methyl-indazol-6-yl]cyclohexyl]-4-piperidyl]methoxy]quinoxaline], under setting [1], the concentration at 6 h came to 103000 ± 9270 ng/g and the concentration at 12 h was determined as 111000 ± 12000 ng/g. Under setting [2], the concentration at 1 h was found to be 1240 ± 90.2 ng/mL, the concentration at 6 h was found to be 1500 ± 574 ng/mL, the concentration at 12 h came to 985 ± 234 ng/mL and the concentration at 24 h was determined as 595 ± 81.8 ng/mL. Besides, under setting [3], the concentration at 1 h turned out to be 345 ± 57.4 ng/g, the concentration at 6 h is 855 ± 257 ng/g, the concentration at 12 h turned out to be 509 ± 101 ng/g and the concentration at 24 h turned out to be 254 ± 7.8 ng/g.
For the compound `CCN(C)S(=O)(=O)Nc1ccc(F)c(Oc2ccc3ncc(C4CC5(CCN(C6CCC(c7cc8c(cc7F)c(N7CCC(=O)NC7=O)nn8C)CC6)CC5)C4)nc3c2)c1C#N` (single isomer, unassigned) [Compound 180, 7-[2-cyano-3-[[ethyl(methyl)sulfamoyl]amino]-6-fluoro-phenoxy]-2-[7-[4-[3-(2,4-dioxohexahydropyrimidin-1-yl)-5-fluoro-1-methyl-indazol-6-yl]cyclohexyl]-7-azaspiro[3.5]nonan-2-yl]quinoxaline], under setting [1], the concentration at 6 h amounted to 712 ± 282 ng/g and the concentration at 12 h is 247 ± 33.7 ng/g. Further, under setting [2], the concentration at 1 h was determined as 5110 ± 867 ng/mL, the concentration at 6 h came to 260 ± 84.3 ng/mL, the concentration at 12 h was 155 ± 27.8 ng/mL and the concentration at 24 h was determined as 1.54 ± 0.588 ng/mL. Moreover, under setting [3], the concentration at 1 h is 680 ± 72.8 ng/g, the concentration at 6 h came out at 245 ± 34.7 ng/g, the concentration at 12 h was determined as 82.6 ± 21.8 ng/g and the concentration at 24 h was 3.89 ng/g.
Turning to `CCN(C)S(=O)(=O)Nc1ccc(F)c(Oc2ccc3ncn(C4CC5(CCN(C6CC7(C6)CN(c6cc8c(cc6F)c(N6CCC(=O)NC6=O)nn8C)C7)CC5)C4)c(=O)c3c2)c1C#N` (stereo not shown) [Compound 141, 6-[2-cyano-3-[[ethyl(methyl)sulfamoyl]amino]-6-fluoro-phenoxy]-3-[7-[2-[3-(2,4-dioxohexahydropyrimidin-1-yl)-5-fluoro-1-methyl-indazol-6-yl]-2-azaspiro[3.3]heptan-6-yl]-7-azaspiro[3.5]nonan-2-yl]-4-oxo-quinazoline], under setting [1], the concentration at 6 h is 9730 ± 1380 ng/g and the concentration at 12 h turned out to be 3050 ± 618 ng/g. In addition, under setting [2], the concentration at 1 h came to 17700 ± 924 ng/mL, the concentration at 6 h was 10700 ± 1420 ng/mL, the concentration at 12 h came to 2530 ± 365 ng/mL and the concentration at 24 h was determined as 219 ± 74.6 ng/mL. For the same compound, under setting [3], the concentration at 1 h stood at 2120 ± 109 ng/g, the concentration at 6 h stood at 2230 ± 114 ng/g, the concentration at 12 h came to 818 ± 121 ng/g and the concentration at 24 h was found to be 75.4 ± 24.3 ng/g.
For the compound `CCN(C)S(=O)(=O)Nc1ccc(F)c(Oc2ccc3ncn(C4CC5(CCN(C6CCN(c7cc8c(cc7F)c(N7CCC(=O)NC7=O)nn8C)CC6)CC5)C4)c(=O)c3c2)c1C#N` [Compound 156, 6-[2-cyano-3-[[ethyl(methyl)sulfamoyl]amino]-6-fluoro-phenoxy]-3-[7-[1-[3-(2,4-dioxohexahydropyrimidin-1-yl)-5-fluoro-1-methyl-indazol-6-yl]-4-piperidyl]-7-azaspiro[3.5]nonan-2-yl]-4-oxo-quinazoline], under setting [1], the concentration at 6 h was determined as 1460 ± 170 ng/g and the concentration at 12 h was 262 ± 100 ng/g. In addition, under setting [2], the concentration at 1 h was found to be 4130 ± 545 ng/mL, the concentration at 6 h was 805 ± 85.2 ng/mL, the concentration at 12 h came out at 111 ± 46.3 ng/mL and the concentration at 24 h was determined as 1.78 ± 0.554 ng/mL. Under setting [3], the concentration at 1 h amounted to 758 ± 66.9 ng/g, the concentration at 6 h is 295 ± 30.3 ng/g, the concentration at 12 h was 102 ± 35.6 ng/g and the concentration at 24 h turned out to be 33.5 ng/g.

(Values after patent US20260297060A1, “COMPOUNDS FOR THE DEGRADATION OF MUTANT BRAF” (C4 THERAPEUTICS, INC., priority 2023, published 2026).)
